This is an account of results in patent US20140205681A1, “HYDROGEN-BOND SURROGATE PEPTIDES AND PEPTIDOMIMETICS FOR p53 REACTIVATION” (New York University, priority 2013, published 2014).

Ends that are not written are not given here. * marks the point of attachment. A∗ = N-allylalanine, C=CCN[C@@H](C)C(=O)*; code X = not defined here

In assay [1] the test system is p53. Put plainly: p53 transcriptional activity (Cignal p53 Firefly/Renilla luciferase reporter). The assay is classed as cell-based, human. The following applies: 24 hours; for p53 activity, increase: HPV-positive UMSCC47 cells, vs vehicle; for p53 activity, increase / p53 activity: 10 μM; for p53 activity: UMSCC74A (HPV-negative, p53 wildtype). As for the experimental part:
Cells were transfected with 100 ng of Cignal p53 reporter (SABiosciences, Valencia, Calif.) using Lipofectamine 2000. Cignal p53 reporter contains tandem repeats of the p53 consensus transcriptional response element. After 48 hours, cells were washed with cold PBS, lysed in passive lysis buffer (Promega), and measured for Firefly/Renilla dual luciferase activities in a luminometer using the Dual-Light System (Applied Biosystems, Foster City, Calif.). […] to control for transfection efficiency. A modification to the protocol was used for compound treatment. UMSCC47 cells were transfected with 100 ng of Cignal p53 reporter. After 24 hours, cells were treated with vehicle, CH1iB (10 μM), cis-platinum (10 μM), or combination of CH1iB (10 μM) and cis-platinum (10 μM) and measured for Firefly/Renilla dual luciferase activities 24 hours post-treatment.
On the technique in general: Reporter assays use an easily measured gene product as a stand-in for the process of interest.

Assay [2] has as its system UMSCC47 cells. Put plainly: Cell proliferation (MTT). The format is cell-based, human. The note with it: UMSCC47 cells; for effect on anti-proliferative efficacy of cis-platinum: 10 μM with cis-platinum 10 μM; for cell proliferation, single-agent: 10 μM, 24-72 hours. As to the method:
(§1) Cell proliferation was assessed using the MTT reagent (Roche Molecular Biochemicals, Nutley, N.J.) to detect metabolic active cells. Absorbance was measured at 570 nm in the Spectra Max 190 ELISA reader (Molecular Devices, Sunnyvale, Calif.) after overnight incubation. For clonogenic survival, 200 cells per well were plated in complete growth media and allowed to grow until visible colonies were formed (14 days). Cell colonies were fixed with cold methanol, stained with 0.25% crystal violet in 25% methanol, washed, and air dried. For apoptosis, cells were harvested, washed with cold PBS, and co-stained with Annexin V and propidium iodide according to the manufacturer's protocol (ApoAlert Annexin V-FITC Apoptosis Kit; Clontech). Apoptotic cells were analyzed using BD FACS Calibur (BD Biosciences Corporation, Franklin Lakes, N.J.) at The Ohio State University Comprehensive Cancer Center Analytical Cytometry Core.

The test system of assay [3] is p53. The experiment in a line: Western blot of total and acetylated[K382] p53 levels. The note with it: 24 hours; for acetylated p53 levels / p53 accumulation / p53 levels: 10 μM; for p53 levels: UMSCC74A. The format is cell-based, human. As for the experimental part:
Whole cell lysates were mixed with Laemmli loading buffer, boiled, separated by SDS-PAGE, and transferred to a nitrocellulose membrane. Subsequently, immunoblot analyses were performed using antibodies specific to V5 (Invitrogen), p53 (sc-126, Santa Cruz Biotechnology, Santa Cruz, Calif.), or acetylated[[…]]-p53 (2525, Cell Signaling Technology). The signal was developed using the SuperSignal Western Blotting Kit (Pierce, Rockford, Ill.).
On the technique in general: A western blot detects proteins with antibodies after separation by electrophoresis.

The subject of assay [4] is p300, p53, p21, miR-34a, miR-200c. The experiment in a line: Quantitative real-time PCR of p300, p53, p21, miR-34a and miR-200c expression. The following applies: 10 μM, 24 hours; for expression of p300, p53, and p53-regulated genes: UMSCC74A. The assay is classed as cell-based, human. As for the experimental part:
Cells were extracted for total RNA using the TRIzol® reagent (Invitrogen) or TaqMan PreAmp Cells-to-CT kit (Applied Biosystems). Expression of p300, p53, p21, miR-34a and miR-200c were determined using the Applied Biosystems 7900HT Fast Real-Time PCR System with validated TaqMan gene expression assays (Applied Biosystems). p53, p300, and p21 expression were normalized to GADPH and miR-34a and miR-200c expression were normalized to RNU44 using the ΔΔCt method.
(In qPCR the cycle at which signal appears reflects the starting amount.)

A further assay addresses T1, HPV16 E6-p300 (Homo sapiens, UniProt Q09472).
T1 construct: Cell lysates were extracted, immunoprecipitated with anti-p300 antibody, and immunoblotted with anti-E6 antibody; endogenous in cells; host or cells: UMSCC47 (HPV16-positive HNSCC)
The experiment in a line: Immunoprecipitation of HPV16 E6-p300 association. The assay is classed as cell-based. The note with it: UMSCC47 cells, 10 μM, 24 hours. As for the experimental part: Cells were lysed with NP buffer [50 mM Tris (pH 8.0), 150 mM NaCl, 0.5% deoxycholate, 0.1% SDS, and 1.0% NP-40] containing 1× Protease Inhibitor Cocktail (Roche, Switzerland) at 4° C. with gentle rocking for 15 min. The supernatant was pre-cleared to block nonspecific binding with 50 μL protein A/G Agarose beads (Pierce Biotechnology) that had been pre-washed with NP buffer before use. Equal amounts of anti-E6 antibody (Abcam), anti-p300 antibody (Millipore), or IgG antibody (Cell Signaling) were added to the respective samples. After 4 hours incubation at 4° C., 50 μL pre-washed protein A/G-agarose beads were added to each tube and immunoprecipitation was performed by rocking overnight at 4° C. The immunoprecipitated complexes were washed with NP buffer and then eluted using 2×SDS sample buffer. Eluted sample and 10% of input were resolved by SDS-PAGE for Western blot analysis with anti-E6, anti-p300, or anti-V5 antibodies.

In another assay the test system is UMSCC74A cells. Put plainly: Cell proliferation (MTT). The assay is classed as cell-based, human. The note with it: for cell proliferation, single-agent: HPV-negative UMSCC74A cells, 10 μM; for effect on efficacy of cis-platinum on proliferation: UMSCC74A cells, 10 μM with cis-platinum 10 μM. As for the experimental part: as §1
Assay [5] concerns IMR90 (human normal fibroblasts). Put plainly: Cell proliferation (MTT). The format is cell-based. The following applies: for effect on efficacy of cis-platinum on proliferation: IMR90 fibroblasts, 10 μM with cis-platinum 10 μM; for cell proliferation, single-agent: human normal IMR90 fibroblasts, 10 μM. As for the experimental part: as §1
Assay [6] concerns UMSCC47 cells. The experiment in a line: Clonogenic survival (crystal violet). The assay is classed as cell-based, human. The note with it: UMSCC47 cells, 10 μM each agent, 14 days, vs vehicle. As for the experimental part: as §1
Assay [7] concerns UMSCC47 cells. Put plainly: Apoptosis (Annexin V FACS). The format is cell-based, human. The note with it: 10 μM, 24 hours, vs vehicle. As for the experimental part:
as §1

Assay [8] has as its system UMSCC47 cells. Put plainly: Tumorsphere formation. The format is cell-based, human. The following applies: UMSCC47 cells, 10 μM, 7 days, vs vehicle. As for the experimental part: Cells were harvested and seeded in a serum-free defined medium consisting of KSF medium supplemented with epidermal growth factor, basic fibroblast growth factor, insulin, and hydrocortisone in low-attachment plates (Corning Incorporated, Corning, N.Y.) for tumorspheres. Tumorsphere formation efficiency was calculated as the number of tumorspheres ([…] in diameter) formed in 7 days divided by the original number of cells seeded. Tumorsphere diameter was measured using NIS-Elements software.

The target of a further assay is CH1 domain of p300 (Homo sapiens, UniProt Q09472). The following applies: competes with endogenous HIF-1α for p300; Henchey et al. 2010; cited from earlier work.
Where [9] appears, read: UMSCC47 cells, 10 μM with cis-platinum 10 μM.

T1 sequence (Q09472 whole entry): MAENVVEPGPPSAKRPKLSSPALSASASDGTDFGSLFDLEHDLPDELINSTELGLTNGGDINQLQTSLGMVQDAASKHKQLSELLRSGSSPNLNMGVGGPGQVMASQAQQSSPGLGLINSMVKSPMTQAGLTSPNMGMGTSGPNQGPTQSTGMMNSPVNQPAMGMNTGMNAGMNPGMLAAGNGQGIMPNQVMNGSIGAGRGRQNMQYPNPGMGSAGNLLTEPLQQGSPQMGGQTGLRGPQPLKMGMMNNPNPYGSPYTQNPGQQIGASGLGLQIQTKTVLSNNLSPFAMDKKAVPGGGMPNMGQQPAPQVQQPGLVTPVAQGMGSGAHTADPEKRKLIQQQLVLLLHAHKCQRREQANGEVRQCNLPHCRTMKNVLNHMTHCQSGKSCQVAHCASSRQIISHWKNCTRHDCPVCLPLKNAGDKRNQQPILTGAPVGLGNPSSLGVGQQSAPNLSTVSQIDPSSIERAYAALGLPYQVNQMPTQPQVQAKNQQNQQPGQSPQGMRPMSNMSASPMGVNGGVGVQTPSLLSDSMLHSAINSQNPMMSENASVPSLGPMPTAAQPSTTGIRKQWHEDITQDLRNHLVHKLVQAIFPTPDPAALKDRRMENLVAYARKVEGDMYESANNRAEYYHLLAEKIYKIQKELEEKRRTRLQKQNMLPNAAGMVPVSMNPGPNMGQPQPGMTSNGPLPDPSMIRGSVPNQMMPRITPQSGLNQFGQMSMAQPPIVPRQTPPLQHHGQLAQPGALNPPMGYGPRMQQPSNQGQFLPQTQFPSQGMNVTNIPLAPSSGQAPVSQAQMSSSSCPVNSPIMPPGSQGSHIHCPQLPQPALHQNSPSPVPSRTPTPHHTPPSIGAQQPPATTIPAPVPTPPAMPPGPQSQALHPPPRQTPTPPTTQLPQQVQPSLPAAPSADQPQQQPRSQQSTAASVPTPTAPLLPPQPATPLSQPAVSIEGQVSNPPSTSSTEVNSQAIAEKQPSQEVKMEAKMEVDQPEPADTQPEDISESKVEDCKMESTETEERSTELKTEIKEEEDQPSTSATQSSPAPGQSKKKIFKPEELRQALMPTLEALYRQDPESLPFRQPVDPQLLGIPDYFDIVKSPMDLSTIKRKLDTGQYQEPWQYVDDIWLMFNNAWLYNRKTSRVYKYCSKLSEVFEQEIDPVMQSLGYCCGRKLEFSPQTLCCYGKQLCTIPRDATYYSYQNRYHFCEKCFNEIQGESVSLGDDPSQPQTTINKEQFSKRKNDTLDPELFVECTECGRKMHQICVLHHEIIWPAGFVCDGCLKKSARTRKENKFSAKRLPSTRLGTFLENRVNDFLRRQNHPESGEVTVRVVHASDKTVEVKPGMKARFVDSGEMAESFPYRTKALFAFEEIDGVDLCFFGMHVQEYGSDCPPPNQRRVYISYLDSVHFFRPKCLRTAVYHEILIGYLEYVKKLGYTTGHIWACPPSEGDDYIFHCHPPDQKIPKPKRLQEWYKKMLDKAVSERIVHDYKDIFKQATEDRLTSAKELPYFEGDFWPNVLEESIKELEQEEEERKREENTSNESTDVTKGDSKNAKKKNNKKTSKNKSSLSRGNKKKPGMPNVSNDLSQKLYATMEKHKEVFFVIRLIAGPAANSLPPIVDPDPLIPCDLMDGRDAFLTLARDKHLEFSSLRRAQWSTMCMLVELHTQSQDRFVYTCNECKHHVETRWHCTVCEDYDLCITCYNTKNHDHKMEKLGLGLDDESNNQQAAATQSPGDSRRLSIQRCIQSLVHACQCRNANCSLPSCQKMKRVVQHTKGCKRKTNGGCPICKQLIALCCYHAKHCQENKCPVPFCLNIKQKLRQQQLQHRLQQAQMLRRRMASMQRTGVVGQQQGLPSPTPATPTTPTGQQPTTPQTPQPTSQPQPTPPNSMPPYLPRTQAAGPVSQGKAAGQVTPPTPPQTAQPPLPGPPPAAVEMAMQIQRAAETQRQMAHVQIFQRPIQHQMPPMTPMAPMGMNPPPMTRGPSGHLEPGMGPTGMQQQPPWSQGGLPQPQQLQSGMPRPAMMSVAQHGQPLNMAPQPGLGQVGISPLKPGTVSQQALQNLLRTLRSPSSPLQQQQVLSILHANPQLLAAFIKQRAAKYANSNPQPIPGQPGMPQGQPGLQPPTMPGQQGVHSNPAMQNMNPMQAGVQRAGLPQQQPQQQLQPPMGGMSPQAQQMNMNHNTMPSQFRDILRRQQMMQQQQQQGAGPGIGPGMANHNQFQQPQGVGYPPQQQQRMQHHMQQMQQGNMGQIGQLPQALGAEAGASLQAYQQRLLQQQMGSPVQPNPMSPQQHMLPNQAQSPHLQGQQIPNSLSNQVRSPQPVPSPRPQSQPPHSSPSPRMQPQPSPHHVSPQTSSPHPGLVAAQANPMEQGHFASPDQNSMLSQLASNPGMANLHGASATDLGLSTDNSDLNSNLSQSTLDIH
Sequence of CH1 domain of p300 (Q09472 whole entry, the tested form may be a part): as the sequence (Q09472 whole entry) above

XELA*RAADQ-NH2 [CH1iB-mut]: the “p53 activity, increase” value with p53 [1] was 14%. In the assay on UMSCC47 cells [2], the “effect on anti-proliferative efficacy of cis-platinum” value was “no effect” and the “cell proliferation, single-agent” value is “no effect”.

As for XELA*RALDQ-NH2 [CH1iB], in the assay on p53 [1], the “p53 activity, increase” value was determined as 71% and the p53 activity entry is given as “did not modulate”. In addition, in the assay with p53 [1] (setting [9]), the “effect of cis-platinum on p53 activity” value is recorded as “potentiated”. Besides, the “effect of cis-platinum on p53 accumulation and acetylation” value with p53 [3] (setting [9]) is “potentiated”. For the same substance, in the assay with p53 [3] (UMSCC47 cells), the “acetylated p53 levels” value is given as “enhanced” and the p53 accumulation result was “enhanced”. The p53 levels result in the assay on p53 [3] was “did not modulate”. In addition, the “p21, miR-34a, and miR-200c expression” value in [4] (UMSCC47 cells) is “modest but significant increase”. Besides, the “expression of p300, p53, and p53-regulated genes” value in assay [4] is reported as “unchanged”. For the same substance, the “association between E6 and p300” value on HPV16 E6-p300 is given as “reduced”. In addition, in the assay with UMSCC47 cells [2], the “effect on anti-proliferative efficacy of cis-platinum” value is “potentiated” and the “cell proliferation, single-agent” value is reported as “inhibited the proliferation”. In the assay with UMSCC74A cells, the “cell proliferation, single-agent” value is recorded as “no effect” and the “effect on efficacy of cis-platinum on proliferation” value (“effect on efficacy of cis-platinum” for short) was “did not augment”. Moreover, in assay [5], the “effect on efficacy of cis-platinum” value is reported as “did not augment” and the “cell proliferation, single-agent” value is “no effect”. For the same substance, the “clonogenic survival, reduction/inhibition” value in the assay on UMSCC47 cells [6] is recorded as 35%. Besides, the “apoptosis, enhanced by” value in the assay with UMSCC47 cells [7] is 353%. The “tumorsphere formation, reduced by” value in the assay with UMSCC47 cells [8] was 20%.

Consider “XTAA*DCEYNAR ({code X-Thr-Ala-A∗}-DCEYNAR; staple (positions not given here); reading uncertain; also: HBS: 4-pentenoic acid, N-allylalanine, printed as XTAA*DCEYNAR) [CH1iA, hydrogen bond surrogate stabilized α-helical mimic of HIF-1α targeting site A of p300 CH1; X = 4-pentenoic acid, A* = N-allylalanine, reference compound]”, for which, in the assay on p53 [1], the “p53 activity, increase” value is “no effect” and the p53 activity entry was “did not modulate”. In the assay with p53 [3] (UMSCC47 cells), the “acetylated p53 levels” value is listed as “no effect” and the p53 accumulation result is “no effect”. Besides, in the assay with p53 [3], the p53 levels result is listed as “did not modulate”. For the same substance, the “expression of p300, p53, and p53-regulated genes” value in assay [4] is given as “unchanged”. In the assay on UMSCC47 cells [2], the “cell proliferation, single-agent” value is “inactive”. In the assay on UMSCC74A cells, the “cell proliferation, single-agent” value is reported as “no effect” and the “effect on efficacy of cis-platinum” value is “did not augment”. In assay [5], the “effect on efficacy of cis-platinum” value is listed as “did not augment” and the “cell proliferation, single-agent” value is given as “no effect”. Also, in the assay with CH1 domain of p300, the “HIF-1α-mediated transcription of vascular endothelial growth factor” value was “reduction”.
